Experimental data from PubChem BioAssay (NCI).
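Tested at 5 concentrations; 48 h exposure; 96-well plates; endpoints linearly interpolated, else capped at highest concentration. GI50 is the concentration that inhibits growth by half. TGI denotes the concentration required for complete inhibition of growth.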

Key:
Test in all cases: growth of human tumour cells (NCI), 48 h
OVCAR-5 ovarian = test system: OVCAR-5 ovarian
MALME-3M melanoma = test system: MALME-3M melanoma
LOX IMVI melanoma = test system: LOX IMVI melanoma
OVCAR-8 ovarian = test system: OVCAR-8 ovarian
HT29 colon = test system: HT29 colon
M14 melanoma = test system: M14 melanoma
HOP-62 NSCLC = test system: HOP-62 NSCLC
UO-31 renal = test system: UO-31 renal
COLO 205 colon = test system: COLO 205 colon
CCRF-CEM leukemia = test system: CCRF-CEM leukemia
OVCAR-4 ovarian = test system: OVCAR-4 ovarian
SK-MEL-28 melanoma = test system: SK-MEL-28 melanoma
KM12 colon = test system: KM12 colon
CAKI-1 renal = test system: CAKI-1 renal
MOLT-4 leukemia = test system: MOLT-4 leukemia
SW-620 colon = test system: SW-620 colon
NCI-H460 lung = test system: NCI-H460 lung
PC-3 prostate = test system: PC-3 prostate
EKVX NSCLC = test system: EKVX NSCLC
HCT-15 colon = test system: HCT-15 colon
ACHN renal = test system: ACHN renal
NCI-H226 lung = test system: NCI-H226 lung
SNB-19 CNS = test system: SNB-19 CNS
A549 NSCLC = test system: A549 NSCLC
NCI-H23 lung = test system: NCI-H23 lung
RPMI-8226 leukemia = test system: RPMI-8226 leukemia
NCI-H522 lung = test system: NCI-H522 lung
UACC-62 melanoma = test system: UACC-62 melanoma
MCF7 breast = test system: MCF7 breast
MDA-MB-435 = test system: MDA-MB-435
SF-295 CNS = test system: SF-295 CNS
786-0 renal = test system: 786-0 renal
SK-MEL-2 melanoma = test system: SK-MEL-2 melanoma
TK-10 renal = test system: TK-10 renal
UACC-257 melanoma = test system: UACC-257 melanoma
MDA-MB-231 breast = test system: MDA-MB-231 breast
HS 578T breast = test system: HS 578T breast
U251 CNS = test system: U251 CNS
RXF 393 renal = test system: RXF 393 renal
SK-OV-3 ovarian = test system: SK-OV-3 ovarian
HL-60(TB) leukemia = test system: HL-60(TB) leukemia
SK-MEL-5 melanoma = test system: SK-MEL-5 melanoma
OVCAR-3 ovarian = test system: OVCAR-3 ovarian
IGROV1 ovarian = test system: IGROV1 ovarian
SF-268 CNS = test system: SF-268 CNS
HCT-116 colon = test system: HCT-116 colon
T-47D breast = test system: T-47D breast
HOP-92 NSCLC = test system: HOP-92 NSCLC
BT-549 breast = test system: BT-549 breast
NCI/ADR-RES ovarian = test system: NCI/ADR-RES ovarian
SNB-75 CNS = test system: SNB-75 CNS
K-562 leukemia = test system: K-562 leukemia
SR leukemia = test system: SR leukemia
HCC-2998 colon = test system: HCC-2998 colon
SF-539 CNS = test system: SF-539 CNS
SN12C renal = test system: SN12C renal

COc1ccc2[nH]c(Cl)c(/C=C3/C(=O)N(C)c4ccccc43)c2c1
GI50 (OVCAR-5 ovarian): > 100 µM
TGI (OVCAR-5 ovarian): > 100 µM
GI50 (MALME-3M melanoma): > 100 µM
TGI (MALME-3M melanoma): > 100 µM
GI50 (LOX IMVI melanoma): > 100 µM
TGI (LOX IMVI melanoma): > 100 µM
GI50 (OVCAR-8 ovarian): > 100 µM
TGI (OVCAR-8 ovarian): > 100 µM
GI50 (HT29 colon): > 100 µM
TGI (HT29 colon): > 100 µM
GI50 (M14 melanoma): > 100 µM
TGI (M14 melanoma): > 100 µM
GI50 (HOP-62 NSCLC): 92 µM
TGI (HOP-62 NSCLC): > 100 µM
GI50 (UO-31 renal): > 100 µM
TGI (UO-31 renal): > 100 µM
GI50 (COLO 205 colon): 21.7 µM
TGI (COLO 205 colon): > 100 µM
GI50 (CCRF-CEM leukemia): 43.6 µM
TGI (CCRF-CEM leukemia): > 100 µM
GI50 (OVCAR-4 ovarian): > 100 µM
TGI (OVCAR-4 ovarian): > 100 µM
GI50 (SK-MEL-28 melanoma): > 100 µM
TGI (SK-MEL-28 melanoma): > 100 µM
GI50 (KM12 colon): 16.9 µM
TGI (KM12 colon): 34.7 µM
GI50 (CAKI-1 renal): > 100 µM
TGI (CAKI-1 renal): > 100 µM
GI50 (MOLT-4 leukemia): 79.1 µM
TGI (MOLT-4 leukemia): > 100 µM
GI50 (SW-620 colon): 96.6 µM
TGI (SW-620 colon): > 100 µM
GI50 (NCI-H460 lung): > 100 µM
TGI (NCI-H460 lung): > 100 µM
GI50 (PC-3 prostate): > 100 µM
TGI (PC-3 prostate): > 100 µM
GI50 (EKVX NSCLC): > 100 µM
TGI (EKVX NSCLC): > 100 µM
GI50 (HCT-15 colon): > 100 µM
TGI (HCT-15 colon): > 100 µM
GI50 (ACHN renal): > 100 µM
TGI (ACHN renal): > 100 µM
GI50 (NCI-H226 lung): 29.4 µM
TGI (NCI-H226 lung): > 100 µM
GI50 (SNB-19 CNS): 48.9 µM
TGI (SNB-19 CNS): > 100 µM
GI50 (A549 NSCLC): > 100 µM
TGI (A549 NSCLC): > 100 µM
GI50 (NCI-H23 lung): > 100 µM
TGI (NCI-H23 lung): > 100 µM
GI50 (RPMI-8226 leukemia): > 100 µM
TGI (RPMI-8226 leukemia): > 100 µM
GI50 (NCI-H522 lung): > 100 µM
TGI (NCI-H522 lung): > 100 µM
GI50 (UACC-62 melanoma): 71 µM
TGI (UACC-62 melanoma): > 100 µM
GI50 (MCF7 breast): > 100 µM
TGI (MCF7 breast): > 100 µM
GI50 (MDA-MB-435): > 100 µM
TGI (MDA-MB-435): > 100 µM
GI50 (SF-295 CNS): > 100 µM
TGI (SF-295 CNS): > 100 µM
GI50 (786-0 renal): > 100 µM
TGI (786-0 renal): > 100 µM
GI50 (SK-MEL-2 melanoma): > 100 µM
TGI (SK-MEL-2 melanoma): > 100 µM
GI50 (TK-10 renal): > 100 µM
TGI (TK-10 renal): > 100 µM
GI50 (UACC-257 melanoma): > 100 µM
TGI (UACC-257 melanoma): > 100 µM
GI50 (MDA-MB-231 breast): 36.5 µM
TGI (MDA-MB-231 breast): > 100 µM
GI50 (HS 578T breast): > 100 µM
TGI (HS 578T breast): > 100 µM
GI50 (U251 CNS): > 100 µM
TGI (U251 CNS): > 100 µM
GI50 (RXF 393 renal): > 100 µM
TGI (RXF 393 renal): > 100 µM
GI50 (SK-OV-3 ovarian): 77.4 µM
TGI (SK-OV-3 ovarian): > 100 µM
GI50 (HL-60(TB) leukemia): > 100 µM
TGI (HL-60(TB) leukemia): > 100 µM
GI50 (SK-MEL-5 melanoma): 69.3 µM
TGI (SK-MEL-5 melanoma): > 100 µM
GI50 (OVCAR-3 ovarian): 55.1 µM
TGI (OVCAR-3 ovarian): > 100 µM
GI50 (IGROV1 ovarian): > 100 µM
TGI (IGROV1 ovarian): > 100 µM
GI50 (SF-268 CNS): > 100 µM
TGI (SF-268 CNS): > 100 µM
GI50 (HCT-116 colon): 42.5 µM
TGI (HCT-116 colon): > 100 µM
GI50 (T-47D breast): 13.1 µM
TGI (T-47D breast): 63.4 µM
GI50 (HOP-92 NSCLC): 91.3 µM
TGI (HOP-92 NSCLC): > 100 µM
GI50 (BT-549 breast): > 100 µM
TGI (BT-549 breast): > 100 µM
GI50 (NCI/ADR-RES ovarian): > 100 µM
TGI (NCI/ADR-RES ovarian): > 100 µM

Nc1ncnc2nc(-c3ccc(C[P+](c4ccccc4)(c4ccccc4)c4ccccc4)cc3)[nH]c12
GI50 (786-0 renal): 48.2 µM
GI50 (SNB-75 CNS): 57.7 µM
GI50 (U251 CNS): 32.7 µM

O=P(O)(Cc1ccccc1)OCC1(O)OCC(O)C(O)C1O (stereo not given)
TGI (OVCAR-5 ovarian): > 10 µM
TGI (MALME-3M melanoma): > 10 µM
TGI (M14 melanoma): > 10 µM
TGI (HOP-62 NSCLC): > 10 µM
TGI (COLO 205 colon): > 10 µM
TGI (OVCAR-4 ovarian): > 10 µM
TGI (SK-MEL-28 melanoma): > 10 µM
TGI (CAKI-1 renal): > 10 µM
TGI (SW-620 colon): > 10 µM
TGI (NCI-H460 lung): > 10 µM
TGI (K-562 leukemia): > 10 µM
TGI (ACHN renal): > 10 µM
TGI (A549 NSCLC): > 10 µM
TGI (NCI-H23 lung): > 10 µM
TGI (RPMI-8226 leukemia): > 10 µM
TGI (UACC-62 melanoma): > 10 µM
TGI (MCF7 breast): > 10 µM
TGI (MDA-MB-435): > 10 µM
TGI (786-0 renal): > 10 µM
TGI (SNB-75 CNS): > 10 µM
TGI (SK-MEL-2 melanoma): > 10 µM
TGI (SR leukemia): > 10 µM
TGI (U251 CNS): > 10 µM
TGI (RXF 393 renal): > 10 µM
TGI (SK-OV-3 ovarian): > 10 µM
TGI (SK-MEL-5 melanoma): > 10 µM
TGI (IGROV1 ovarian): > 10 µM
TGI (SF-268 CNS): > 10 µM
TGI (T-47D breast): > 10 µM
TGI (NCI/ADR-RES ovarian): > 10 µM

COc1cccc(-c2cc(=O)c3cc(N)ccc3[nH]2)c1
TGI (HCC-2998 colon): 48.6 µM
TGI (OVCAR-5 ovarian): > 100 µM
TGI (OVCAR-8 ovarian): > 100 µM
TGI (HT29 colon): 18 µM
TGI (M14 melanoma): > 100 µM
TGI (HOP-62 NSCLC): > 100 µM
TGI (COLO 205 colon): > 100 µM
TGI (CCRF-CEM leukemia): > 100 µM
TGI (SF-539 CNS): 5.2 µM
GI50 (OVCAR-4 ovarian): 82.3 µM
TGI (OVCAR-4 ovarian): > 100 µM
TGI (SK-MEL-28 melanoma): > 100 µM
TGI (KM12 colon): > 100 µM
TGI (MOLT-4 leukemia): > 100 µM
TGI (SW-620 colon): > 100 µM
TGI (NCI-H460 lung): > 100 µM
TGI (PC-3 prostate): > 100 µM
TGI (EKVX NSCLC): > 100 µM
TGI (HCT-15 colon): > 100 µM
TGI (ACHN renal): > 100 µM
TGI (SNB-19 CNS): > 100 µM
TGI (A549 NSCLC): > 100 µM
TGI (NCI-H23 lung): > 100 µM
TGI (NCI-H522 lung): 7.56 µM
TGI (UACC-62 melanoma): > 100 µM
TGI (MCF7 breast): > 100 µM
TGI (786-0 renal): > 100 µM
TGI (SNB-75 CNS): > 100 µM
TGI (TK-10 renal): > 100 µM
TGI (MDA-MB-231 breast): > 100 µM
TGI (U251 CNS): > 100 µM
TGI (SK-OV-3 ovarian): 6.79 µM
TGI (IGROV1 ovarian): > 100 µM
TGI (HOP-92 NSCLC): 59.7 µM
TGI (BT-549 breast): > 100 µM
TGI (SN12C renal): > 100 µM
TGI (NCI/ADR-RES ovarian): 11.9 µM
